Experimental data: PubChem BioAssay (NCI)
“And” between values parts separate entries of the source, which are not always exact repeats. Equal values may be shown once.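 Tested at 5 concentrations; 48 h exposure; 96-well plates; endpoints linearly interpolated, else capped at highest concentration. GI50 marks 50% less growth. At the TGI there is no net growth.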

Key:
Assay in all cases: growth of human tumour cells (NCI), 48 h
SK-MEL-5 melanoma = test system: SK-MEL-5 melanoma
HOP-62 NSCLC = test system: HOP-62 NSCLC
NCI-H23 lung = test system: NCI-H23 lung
OVCAR-3 ovarian = test system: OVCAR-3 ovarian
MOLT-4 leukemia = test system: MOLT-4 leukemia
UACC-257 melanoma = test system: UACC-257 melanoma
RPMI-8226 leukemia = test system: RPMI-8226 leukemia
HL-60(TB) leukemia = test system: HL-60(TB) leukemia
MDA-MB-231 breast = test system: MDA-MB-231 breast
T-47D breast = test system: T-47D breast

SMILES	GI50 (SK-MEL-5 melanoma) [µM]	TGI (SK-MEL-5 melanoma)	GI50 (HOP-62 NSCLC)	TGI (HOP-62 NSCLC)	GI50 (NCI-H23 lung) [µM]	TGI (NCI-H23 lung)	GI50 (OVCAR-3 ovarian) [µM]	TGI (OVCAR-3 ovarian)	GI50 (MOLT-4 leukemia) [µM]	TGI (MOLT-4 leukemia) [µM]	GI50 (UACC-257 melanoma) [µM]	TGI (UACC-257 melanoma)	TGI (RPMI-8226 leukemia) [µM]	TGI (HL-60(TB) leukemia)	GI50 (RPMI-8226 leukemia) [µM]	GI50 (HL-60(TB) leukemia) [µM]	GI50 (MDA-MB-231 breast) [µM]	TGI (MDA-MB-231 breast) [µM]	TGI (T-47D breast) [µM]	GI50 (T-47D breast) [µM]
CC(=O)[CH-]C(=O)Nc1ccccc1.CC(=O)[CH-]C(=O)Nc1ccccc1.CC[O-].CC[O-].[Ti+4]	> 100	> 100 µM	> 100 µM	> 100 µM	> 100	> 100 µM	> 100	> 100 µM	> 100	> 100	> 100	> 100 µM								
CN1CCc2c1nc(-c1cccnc1)c1c2N(C)CC1		> 100 µM		> 100 µM		> 100 µM		> 100 µM		> 100		> 100 µM	> 100	> 100 µM						
N.N.N.N.N.O=S(=O)([O-])C(F)(F)F.O=S(=O)([O-])C(F)(F)F.[Os+8]	15	34.1 µM	6.34 µM	20 µM	5.07	19.1 µM			0.876	14.7	22.2	> 100 µM	> 100	36.2 µM	8.7	8.92				
CCN(C(=O)CN1CCN(c2cc3c(cc2F)c(=O)c(C(=O)O)cn3CC)CC1)c1nc(-c2ccccc2)cs1	0.238	0.551 µM	0.345 µM	> 100 µM	0.315	> 100 µM	0.475	> 100 µM	0.376	> 100	0.307	1.55 µM	> 100	0.47 µM	0.344	0.199	0.442	> 100		
O=C1/C(=C/c2cccc(Br)c2)COc2ccc(O)c(O)c21	1.63	3.03 µM	1.84 µM	3.74 µM	1.74	4.25 µM	0.675	2.07 µM	0.927	10.8	1.54	3.03 µM	0.649	4.05 µM	0.248	0.969	1.4	3.35		
COC(=O)C#CCC1CCCC1C1SCCS1 (stereo not given)		> 100 µM		> 100 µM		> 100 µM		> 100 µM		75.6		> 100 µM		> 100 µM						
O=C(N/C(=C\c1cc(Cl)ccc1Cl)c1nc2ccc(Cl)cc2[nH]1)c1ccccc1		25.9 µM		32.3 µM		28.7 µM		35.1 µM		37.2		28.3 µM	40.4	37.1 µM						
CCSc1nc(N)c(C#N)c(-c2ccco2)c1C#N	33.3	> 100 µM	80.9 µM	> 100 µM	53.2	> 100 µM	91.3	> 100 µM	51.9	> 100	31.7	80.2 µM	42.4	> 100 µM	12.2	39.8	> 100	> 100		
CCN(CC)CCCC(C)Nc1c(Sc2cnc3cc(Cl)ccc3c2NC(C)CCCN(CC)CC)cnc2cc(Cl)ccc12 (stereo not given)						9.25 µM		3.78 µM		4.57		3.49 µM	4.55	3.62 µM						
COc1cccc2c1[C@H]1CO[C@H]3C4C[C@H](C(=O)O)C([C@@H](C2)N13)N4C (stereo not given in full)	0.588	4.31 µM and 1.23 µM	3.92 µM and 1.72 µM	9.75 µM and 5.44 µM	0.564	5.47 µM and 1.63 µM		2.99 µM and 3.94 µM	0.45		0.703	5.15 µM and 1.81 µM		4.03 µM and 1.85 µM		0.368				
CCCCc1c2c(nc3c1CCc1cc4cc5c(nc4nc1-3)-c1nc3c(c(CCCC)c1CC5)CCC/C3=C\c1ccccc1)/C(=C/c1ccccc1)CCC2				> 100 µM		> 100 µM		> 100 µM		> 100		> 100 µM	> 100	> 100 µM						
O=C(COc1ccc(Cl)cc1)N1CCN(C(=O)COc2ccc(Cl)cc2)c2ccccc21				> 100 µM		> 100 µM		> 100 µM		> 100		> 100 µM	> 100	37.2 µM						
COc1ccc(-c2onc(-c3c(C)cc(C)cc3C)c2C2=NCCN2)cc1		36.6 µM		> 100 µM		> 100 µM				> 100		46.1 µM	> 100	59.3 µM						
CCN(CC)C(=O)COc1cc2c(O)c3c(O)c(C)c4c(c13)C(=O)C(C)(OC=CC(OC)C(C)C(OC(C)=O)C(C)C(O)C(C)C(O)C(C)C=CC=C(C)C(=O)N2)O4 (stereo not given)		> 100 µM		> 100 µM		> 100 µM		> 100 µM		> 100		> 100 µM	> 100					> 100	> 100	
CCN(CC)CCC(CNc1c(C)cnc2cc(Cl)ccc12)c1ccc(Cl)cc1 (stereo not given)	1.73	3.18 µM	10.6 µM	23.8 µM	10.3	24.1 µM	11.9	25.5 µM	5.27	23.8			13.6	26.9 µM	2.96	4.45			10.5	2.57
CC(=O)NNc1nc(C)c(C(=O)/C=C/c2ccc(/C=C/C(=O)c3sc(NNC(C)=O)nc3C)cc2)s1				> 100 µM		> 100 µM		> 100 µM		> 100		> 100 µM		> 100 µM						
COc1ccc2c(c1)C(=O)c1c-2n(CCCN)c(=O)c2cc([N+](=O)[O-])ccc12			< 0.01 µM	0.0234 µM			2.79	15.9 µM	< 0.01	< 0.01	< 0.01	0.736 µM	< 0.0222		< 0.01		0.1	0.227	1.86	< 0.01
C#C[C@H]1CCCCCC1O (stereo not given in full)		> 100 µM		> 100 µM		> 100 µM		> 100 µM		> 100		> 100 µM		> 100 µM						
Nc1cc2cccc[n+]2c2cccc(Cl)c12	4.94	17.8 µM			14.3	65.6 µM			7.46		11.3	27.4 µM			21.3	47.4	17			9.86
